From patent publication US20260234115A1, “LIPID COMPOUNDS, COMPOSITIONS, AND USES THEREOF” (Liberate Bio, Inc., priority 2023, published 2026)
Marks after values point to notes of the source that are not given here.

Columns and labels:
mouse organs = assay: In vivo activity screening in mice: organ mean total flux (p/s) of luciferase activity after injection of F2 LNP pools (Table 6, FIG. 7A-7C); conditions: luciferase mRNA
Procedure, shortened: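 Luciferase output per organ is reported as mean total flux (p/s) from IVIS regions of interest. Organs were collected from perfused C57BL/6J mice and imaged 10-15 min after s.c. D-luciferin, 4-6 h after i.v. dosing. Dosing was 0.25-3 mg/kg luciferase mRNA in F2 LNP pools.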

[1] = Plate-based fluorescence (RiboGreen) assay: nucleic acid cargo content and encapsulation efficiency of LNPs; type: physicochemical; conditions: for EE (%) N/P:6: LNP
Description: (§1) Lipids and active ingredients (e.g., RNA, DNA, etc.) were assembled into LNPs using microfluidic mixing. An ethanol phase was prepared by solubilizing ionizable lipids (i.e., lipid compounds), phospholipids (e.g., DSPC), cholesterol, and PEG lipids in ethanol, at predetermined mol % ratios given in Table 2. An aqueous phase was prepared by diluting a nucleic acid cargo (e.g., firefly luciferase mRNA) in an acidified buffer (pH 4.0 citrate buffer, 50 mM). A chip with microfluidic mixing architecture (e.g., toroidal mixer) was used to mix the two phases at predetermined flow rate ratios (e.g., 9 ml/min for the aqueous phase and 3 ml/min for the ethanol phase). Resulting LNPs comprising the lipids and encapsulating the nucleic acid cargo were dialyzed against PBS pH 7.4 for 2 hours at room temperature in a 20 kDa MWCO dialysis membrane. Then, PBS was refreshed to continue dialysis overnight at 2-8 TC. Upon completion of the buffer exchange, LNPs were optionally concentrated using a ultracentrifugal unit with a 10-100 kDa MWCO membrane.
c. Plate-Based Fluorescence (RiboGreen) Assay
Nucleic acid cargos in the LNPs were quantified by RiboGreen assay, against a nucleic acid standard curve. LNPs encapsulating nucleic acid cargo were mixed with 1× Tris-EDTA (TE) and 2% triton in TE, separately, to achieve dilutions required by the assay. Then, the samples were heated at 30° C. and vortexed at 300 rpm. Samples were plated into 96-well plates and RiboGreen reagent was added into each well. Following incubation in the dark, fluorescence was measured from the wells, and plotted against the standard curve. Nucleic acid concentration obtained from the Triton-treated samples were used for total cargo concentration quantification. Only TE diluted sample fluorescence values were used to determine the non-encapsulated (free) cargo, and their ratio was used to determine the encapsulation efficiency (EE %).

[2] = Dynamic light scattering: LNP particle size and PDI; type: physicochemical; conditions: for PDI N/P:6 / Size (nm) N/P:6: LNP
Description: as §1
d. Dynamic Light Scattering
LNPs were diluted with PBS pH 7.4 to predetermined dilution ranges based on the process step and LNP concentration. Following mixing, the particle size and PDI were measured by a dynamic light scattering instrument.

[3] = LNP compositions for Formulation F2 Study
[4] = LNP compositions for in vivo mouse study, four formulations (F1-F4) pooled, or pools of four compounds
[5] = LNP compositions for in vivo mouse study, four formulations (F1-F4) of the lipid compound pooled, or pools of four compounds (sixteen compositions)

| Structure (SMILES) | Organ Mean Total Flux Femur (mouse organs; Mouse 1, dose 0.3 mg/kg) | Organ Mean Total Flux Heart (mouse organs; Mouse 1, dose 0.3 mg/kg) | Organ Mean Total Flux Kidney (mouse organs; Mouse 1, dose 0.3 mg/kg) | Organ Mean Total Flux Liver (mouse organs; Mouse 1, dose 0.3 mg/kg) | Organ Mean Total Flux Lung (mouse organs; Mouse 1, dose 0.3 mg/kg) | Organ Mean Total Flux Muscle (mouse organs; Mouse 1, dose 0.3 mg/kg) | Organ Mean Total Flux Pancreas (mouse organs; Mouse 1, dose 0.3 mg/kg) | Organ Mean Total Flux Spleen (mouse organs; Mouse 1, dose 0.3 mg/kg) | EE % [1, 4] [%] | mRNA Content [1, 4] [µg/mL] | EE (%) N/P:6 ([1]; Formulation F1, N/P 6) [%] | EE (%) N/P:6 ([1]; Formulation F2, N/P 6) [%] | EE (%) N/P:6 ([1]; Formulation F3, N/P 6) [%] | EE (%) N/P:6 ([1]; Formulation F4, N/P 6) [%] | Particle Size (nm) [2, 5] [nm] | PDI [2, 4] | PDI N/P:6 ([2]; Formulation F1, N/P 6) | Size (nm) N/P:6 ([2]; Formulation F1, N/P 6) [nm] | PDI N/P:6 ([2]; Formulation F2, N/P 6) | Size (nm) N/P:6 ([2]; Formulation F2, N/P 6) [nm] | other results |
| --- | --- | --- | --- | --- | --- | --- | --- | --- | --- | --- | --- | --- | --- | --- | --- | --- | --- | --- | --- | --- | --- |
| CCCCC/C=C\CCOC(=O)CCCCCC(=O)OCC(COC(=O)CCCCCC(=O)OCC/C=C\CCCCC)(COC(=O)CCC(CCCCCC)OC(=O)NCCN1CCCC1)COC(=O)CC12CC3CC(CC(C3)C1)C2 (centres unmarked) [Compound 8, O7-[2-[[2-(1-adamantyl)acetyl]oxymethyl]-2-[[7-[(Z)-non-3-enoxy]-7-oxo-heptanoyl]oxymethyl]-3-[4-(2-pyrrolidin-1-ylethylcarbamoyloxy)decanoyloxy]propyl]O1-[(Z)-non-3-enyl]heptanedioate] | 11.1 p/s (×10^6) | 2.8 p/s (×10^6) | 0.8 p/s (×10^6) | 72.4 p/s (×10^6) | 20.1 p/s (×10^6) | 22.7 p/s (×10^6) | 4.4 p/s (×10^6) | 10.7 p/s (×10^6) | 97 | 108 | 100 | 99 | 95 | 99 | 101 | 0.07 | 0.08 | 87 ± 6 | 0.06 | 117 ± 4 | Organ Mean Total Flux Femur (mouse organs; Mouse 14, dose 0.5 mg/kg): 9.8 p/s (×10^6); Organ Mean Total Flux Heart (mouse organs; Mouse 14, dose 0.5 mg/kg): 2.2 p/s (×10^6); Organ Mean Total Flux Kidney (mouse organs; Mouse 14, dose 0.5 mg/kg): 3.6 p/s (×10^6); Organ Mean Total Flux Liver (mouse organs; Mouse 14, dose 0.5 mg/kg): 257.0 p/s (×10^6); Organ Mean Total Flux Lung (mouse organs; Mouse 14, dose 0.5 mg/kg): 6.4 p/s (×10^6); Organ Mean Total Flux Muscle (mouse organs; Mouse 14, dose 0.5 mg/kg): 46.9 p/s (×10^6); Organ Mean Total Flux Pancreas (mouse organs; Mouse 14, dose 0.5 mg/kg): 4.0 p/s (×10^6); Organ Mean Total Flux Spleen (mouse organs; Mouse 14, dose 0.5 mg/kg): 10.4 p/s (×10^6); EE % [1, 3]: 98%; PDI [2, 3]: 0.071; Particle Size (nm) [2, 3]: 119 nm; PDI N/P:6 ([2]; Formulation F3, N/P 6): 0.12; Size (nm) N/P:6 ([2]; Formulation F3, N/P 6): 100 ± 2 nm; PDI N/P:6 ([2]; Formulation F4, N/P 6): 0.19; Size (nm) N/P:6 ([2]; Formulation F4, N/P 6): 79 ± 1 nm |
| CCCCC/C=C\CCOC(=O)CCCCCC(=O)OCC(COC(=O)CCCCCC(=O)OCC/C=C\CCCCC)(COC(=O)CCC(CCCCCC)OC(=O)NCCN1CCCC1)COC(=O)CCC(OCCCCCCCC)OCCCCCCCC (centres unmarked) [Compound 9, O7-[2-(4,4-dioctoxybutanoyloxymethyl)-2-[[7-[(Z)-non-3-enoxy]-7-oxo-heptanoyl]oxymethyl]-3-[4-(2-pyrrolidin-1ylethylcarbamoyloxy)decanoyloxy]propyl]O1-[(Z)-non-3-enyl]heptanedioate] | 7.6 p/s (×10^6) | 1.4 p/s (×10^6) | 3.4 p/s (×10^6) | 3583 p/s (×10^6) | 29.8 p/s (×10^6) | 8.3 p/s (×10^6) | 6.7 p/s (×10^6) | 32.5 p/s (×10^6) | 97 | 102 | 100 | 100 | 99 | 99 | 79 | 0.07 | 0.07 | 68 ± 2 | 0.03 | 76 ± 1 | PDI N/P:6 ([2]; Formulation F3, N/P 6): 0.03; Size (nm) N/P:6 ([2]; Formulation F3, N/P 6): 92 ± 2 nm; PDI N/P:6 ([2]; Formulation F4, N/P 6): 0.13; Size (nm) N/P:6 ([2]; Formulation F4, N/P 6): 63 ± 1 nm |
